Laboratory results as given in publication PMC10056008 (Pharmaceuticals, 2023).
Read-outs that look alike come from different tables or passages of the source.

Legend:
coagulation = experiment: Coagulation assay (aPTT, PT, dPT, TT, fibrinogen) in plasma of dosed subjects; format: in vivo, human
Method: An open-label, two-period, single sequence clinical study was conducted. After an overnight fast and drinking 200 mL of water one hour before drug administration, eligible subjects were administered with a capsule of dabigatran etexilate 150 mg ([…]®) on the first day of the study. Blood samples for pharmacokinetic and pharmacodynamic analyses were obtained using EDTA tubes and citrate tubes, respectively. […] Subjects remained at fasting stage until 4 h after the administration. […] To ensure compliance, subjects visited the study site for every drug administration. […] Blood samples were obtained at the same time point scheduled as the first day of the study. Adverse events were collected during the entire study period. This study was conducted in accordance with the Declaration of Helsinki, good clinical practice, and local regulation. The study was approved by the Institutional Review Board at Korea University Guro Hospital (2018GR0336, date of approval: 11 October 2018) and registered at ClinicalTrials.gov (NCT03728101). Anticoagulant assays of aPTT, PT, dPT, TT, and fibrinogen were measured using STA® Compact Max (Stago, Asnieres, France) according to the manufacturer's instructions. […] To measure aPTT, 50 μL of plasma sample was placed in a cuvette in the presence of STA®-PTT (50 μL) and 50 μL of 0.025 M CaCl2. For fibrinogen, 7.5 μL of plasma which was automatically diluted with Owren-Koller buffer was placed into a cuvette and then 50 μL of […] was added. For pharmacodynamic assessment, Phoenix Winnonlin® version 8.3 (Pharsight, Mountain View, CA, USA) was used to calculate AUEC with the linear trapezoidal method and Rmax was directly determined from individual profiles.

[1] = Pharmacokinetics of dabigatran etexilate, dabigatran and dabigatran acylglucuronide in plasma after 150 mg dabigatran etexilate with or without simvastatin; format: in vivo, human
Method: An open-label, two-period, single sequence clinical study was conducted. After an overnight fast and drinking 200 mL of water one hour before drug administration, eligible subjects were administered with a capsule of dabigatran etexilate 150 mg ([…]®) on the first day of the study. Blood samples for pharmacokinetic and pharmacodynamic analyses were obtained using EDTA tubes and citrate tubes, respectively. […] Subjects remained at fasting stage until 4 h after the administration. […] To ensure compliance, subjects visited the study site for every drug administration. […] Blood samples were obtained at the same time point scheduled as the first day of the study. Adverse events were collected during the entire study period. This study was conducted in accordance with the Declaration of Helsinki, good clinical practice, and local regulation. The study was approved by the Institutional Review Board at Korea University Guro Hospital (2018GR0336, date of approval: 11 October 2018) and registered at ClinicalTrials.gov (NCT03728101). Separate plasma samples were kept frozen below -70 °C until analysis. Plasma concentrations of dabigatran etexilate, dabigatran, and dabigatran acylglucuronide were quantified using a high-performance liquid chromatography (Nanospace series SI-2, Shiseido Co., Ltd., Tokyo, Japan) coupled with tandem mass spectrometry (API4000, AB SCIEX LLC, Framingham, MA, USA) method. The method was validated in terms of selectivity, linearity, precision, accuracy, recovery, matrix effect, and stability prior to the analysis. In brief, 100 μL of plasma samples were deproteinized using 400 μL of acetonitrile and centrifuged at 13,000× g for 20 min. Dabigatran-d3 was used as an internal standard. The supernatants were evaporated and then dissolved in a 300 μL mobile phase consisting of acetonitrile and 10 mM ammonium formate (215:85, v/v). These samples were injected onto an Atlantis HILIC SilicaTM column (2.1 mm × 150 mm, 3 μm, Waters, Milford, MA, USA) at a flow rate of 0.3 mL/min. The mass spectrometer equipped with an electrospray ionization source was operated in a positive ion mode. Selected ion pairs of m/z 629.464→290.100 for dabigatran etexilate, m/z 472.300→289.100 for dabigatran, m/z 648.382→289.100 for dabigatran acylglucuronide were detected. […] Pharmacokinetic parameters of dabigatran etexilate, dabigatran, and dabigatran acylglucuronide were derived from noncompartmental analysis using Phoenix Winnonlin® version 8.3 (Certara, Princeton, NJ, USA). Observed values from individual time-concentration profiles were used for Cmax and Tmax. Area under the time-concentration curve (AUC) was calculated using linear-up log-down trapezoidal rule. The AUC from 0 h to infinity (AUCinf) was calculated as follows: AUCinf = AUC + Ct/ke, where Ct was the last plasma concentration and ke was the elimination rate constant. […] Mean residence time (MRT) was calculated as area under the moment curve from time of dosing to the last measurable concentration divided by AUClast. All statistical analyses were performed using SAS® version 9.4 (SAS Institute Inc., Cary, NC, USA). Descriptive statistics were used to summarize demographic, pharmacokinetic, and pharmacodynamic data. A linear mixed effects model was used to compare Cmax, AUClast, and AUCinf between two treatment periods.

thrombin generation = experiment: Thrombin generation assay (TGA) in plasma of dosed subjects; format: in vivo, human
Method: An open-label, two-period, single sequence clinical study was conducted. After an overnight fast and drinking 200 mL of water one hour before drug administration, eligible subjects were administered with a capsule of dabigatran etexilate 150 mg ([…]®) on the first day of the study. Blood samples for pharmacokinetic and pharmacodynamic analyses were obtained using EDTA tubes and citrate tubes, respectively. […] Subjects remained at fasting stage until 4 h after the administration. […] To ensure compliance, subjects visited the study site for every drug administration. […] Blood samples were obtained at the same time point scheduled as the first day of the study. Adverse events were collected during the entire study period. This study was conducted in accordance with the Declaration of Helsinki, good clinical practice, and local regulation. […] TGA was performed using a Technothrombin® TGA kit (Technoclone, Vienna, Austria) on a fully automated, computer-controlled microplate reader (Flexstation 3; Molecular Devices, San Jose, CA, USA) with a 360 nm excitation wavelength and 460 nm emission wavelength. In brief, 30 μL of plasma samples were mixed with 25 μL of 400 μmol/L fluorogenic substrate ([…]; Bachem, Bubendorf, Switzerland). The assay was initiated by dispensing 10 μL of 5 pmol/L recombinant human tissue factor lipidated with synthetic phospholipids and 10 μL of 15 mmol/L CaCl2. TGA results are expressed as Cmax, AUC, Tmax, and lag time. For pharmacodynamic assessment, Phoenix Winnonlin® version 8.3 (Pharsight, Mountain View, CA, USA) was used to calculate AUEC with the linear trapezoidal method and Rmax was directly determined from individual profiles.

[2] = cited from earlier work
recombinant CES1A1 = settings: cited from earlier work
CES1 = settings: in vitro; cited from earlier work
[3] = dabigatran with simvastatin, mean (SD)
[4] = co-administered with simvastatin vs alone
[5] = human, oral, 150 mg dabigatran etexilate alone, plasma, mean (SD)
[6] = before dabigatran etexilate administration, period with simvastatin 40 mg once daily, mean (SD)
[7] = before vs after once daily simvastatin for 7 days

With `[H]/N=C(/N)c1ccc(NCc2nc3cc(C(=O)N(CCC(=O)O)c4ccccn4)ccc3n2C)cc1` [Dabigatran] as the compound, how does the “Fibrinogen AUEC” value (coagulation; dabigatran alone, mean (SD)) read?
The value was 6249.8 (1133.1) h∙mg/dL.

And the “Fibrinogen Rmax” value (coagulation; dabigatran alone, mean (SD))?
Its value is 288.0 (55.9) mg/dL.

What about the “PT (INR) AUEC” value (coagulation; dabigatran alone, mean (SD)) of the same compound?
The value was 26.9 (1.4).

What about the “PT (INR) Rmax” value (coagulation; dabigatran alone, mean (SD)) of the same compound?
Its value is 1.3 (0.1).

What about the “PT (sec) AUEC” value (coagulation; dabigatran alone, mean (SD)) of the same compound?
The value was 344.9 (14.3) s∙h.

What about the “PT (sec) Rmax” value (coagulation; dabigatran alone, mean (SD)) of the same compound?
Its value is 16.6 (1.4) s.

What about the “TT AUEC” value (coagulation; dabigatran alone, mean (SD)) of the same compound?
Its value is 1690.1 (535.9) s∙h.

And the “TT Rmax” value (coagulation; dabigatran alone, mean (SD))?
The value was 169.2 (74.0) s.

What about the “aPTT AUEC” value (coagulation; dabigatran alone, mean (SD)) of the same compound?
Its value is 1203.1 (153.1) s∙h.

What about the “aPTT Rmax” value (coagulation; dabigatran alone, mean (SD)) of the same compound?
The value was 69.5 (13.8) s.

What about the “dPT (1:256) AUEC” value (coagulation; dabigatran alone, mean (SD)) of the same compound?
Its value is 1404.8 (184.7) s∙h.

What about the “dPT (1:256) Rmax” value (coagulation; dabigatran alone, mean (SD)) of the same compound?
The value was 87.5 (19.2) s.

And the “Fibrinogen AUEC” value (coagulation; [3])?
Its value is 6040.9 (758.3) h∙mg/dL.

And the “Fibrinogen Rmax” value (coagulation; [3])?
Its value is 309.3 (96.0) mg/dL.

What about the “PT (INR) AUEC” value (coagulation; [3]) of the same compound?
The value was 27.7 (1.2).

And the “PT (INR) Rmax” value (coagulation; [3])?
The value was 1.4 (0.1).

What about the “PT (sec) AUEC” value (coagulation; [3]) of the same compound?
The value was 353.8 (12.3) s∙h.

What about the “PT (sec) Rmax” value (coagulation; [3]) of the same compound?
The value was 17.2 (1.4) s.

And the “TT AUEC” value (coagulation; [3])?
Its value is 1976.2 (643.8) s∙h.

What about the “TT Rmax” value (coagulation; [3]) of the same compound?
The value was 180.7 (50.4) s.

And the “aPTT AUEC” value (coagulation; [3])?
Its value is 1235.7 (131.7) s∙h.

And the “aPTT Rmax” value (coagulation; [3])?
Its value is 71.7 (12.2) s.

And the “dPT (1:256) AUEC” value (coagulation; [3])?
The value was 1482.9 (144.9) s∙h.

What about the “dPT (1:256) Rmax” value (coagulation; [3]) of the same compound?
Its value is 92.5 (15.3) s.

And the CL/F ([1]; 150 mg dabigatran etexilate alone, mean (SD))?
The CL/F was 362.3 (331.8) L/h.

What about the Tmax ([1]; 150 mg dabigatran etexilate alone, median (min–max)) of the same compound?
Its Tmax is 2 (1–4) h.

And the CL/F ([1]; co-administered with simvastatin 40 mg once daily, day 7, mean (SD))?
Its CL/F is 275.8 (197.4) L/h.

And the “AUClast with simvastatin as % of value when administered alone” value [1, 4]?
The value was 121%.

What about the “Cmax with simvastatin as % of value when administered alone” value [1, 4] of the same compound?
Its value is 124%.

What about the “increase of AUClast after simvastatin co-administration” value ([1]; compared to dabigatran administered alone) of the same compound?
The value was 21%.

And the AUC(0-inf) [1, 5]?
Its AUC(0-inf) is 664 ng·h/mL.

And the AUC(0-t) [1, 5]?
The AUC(0-t) was 617 ng·h/mL.

What about the half-life ([1]; human, plasma, oral, 150 mg dabigatran etexilate alone, mean (SD)) of the same compound?
Its half-life is 6.1 h.

What about the Cmax ([1]; human, plasma, oral, 150 mg dabigatran etexilate alone, mean (SD), read-out: Cmax) of the same compound?
The Cmax was 87 ng/mL.

And the MRT ([1]; human, plasma, oral, 150 mg dabigatran etexilate alone, mean (SD), read-out: MRT)?
Its MRT is 7.1 h.

And the “Thrombin Generation AUC AUEC” value (thrombin generation; dabigatran alone, mean (SD))?
Its value is 84,994.8 (14,977.1) nM∙min∙h.

And the “Thrombin Generation AUC Rmax” value (thrombin generation; dabigatran alone, mean (SD))?
The value was 2423.6 (734.9) nM∙min.

And the “Thrombin Generation Lag time AUEC” value (thrombin generation; dabigatran alone, mean (SD))?
Its value is 131.7 (20.8) min∙h.

And the “Thrombin Generation Lag time Rmax” value (thrombin generation; dabigatran alone, mean (SD))?
Its value is 7.8 (1.7) min.

What about the “Thrombin Generation AUC AUEC” value (thrombin generation; [3]) of the same compound?
The value was 79,286.4 (10,676.3) nM∙min∙h.

What about the “Thrombin Generation AUC Rmax” value (thrombin generation; [3]) of the same compound?
Its value is 2231.7 (326.0) nM∙min.

And the “Thrombin Generation Lag time AUEC” value (thrombin generation; [3])?
Its value is 128.5 (20.1) min∙h.

What about the “Thrombin Generation Lag time Rmax” value (thrombin generation; [3]) of the same compound?
The value was 8.0 (1.5) min.

And the “influence of atorvastatin on pharmacokinetics or pharmacodynamics of dabigatran” value ([2]; healthy volunteers)?
Its value is “No influence”.

And the “fraction excreted via urine” value ([2]; intravenous dabigatran)?
Its value is 85%.

Which “Fibrinogen, baseline” value (coagulation; [6]) does the source give for `CCC(C)(C)C(=O)O[C@H]1C[C@@H](C)C=C2C=C[C@H](C)[C@H](CC[C@@H]3C[C@@H](O)CC(=O)O3)[C@H]21` [Simvastatin] here?
The value was 259.3 (39.4) mg/dL.

What about the “PT (INR), baseline” value (coagulation; [6]) of the same compound?
Its value is 1.0 (0.1) INR.

What about the “PT, baseline” value (coagulation; [6]) of the same compound?
Its value is 13.7 (0.6) s.

What about the “TT, baseline” value (coagulation; [6]) of the same compound?
Its value is 16.2 (0.9) s.

And the “aPTT, baseline” value (coagulation; [6])?
Its value is 40.4 (3.3) s.

And the “dPT, baseline” value (coagulation; [6])?
The value was 43.2 (1.8) s.

And the “anticoagulant effect of simvastatin without dabigatran, coagulation assays” value (coagulation; [7])?
The value was “no significant difference”.

And the “effect on imidapril hydrolase activity” value (recombinant CES1A1)?
Its value is “inhibitory effects”.

And the “Thrombin Generation Assay AUC (endogenous thrombin potential), baseline” value (thrombin generation; [6])?
The value was 4073.1 (642.2) nM∙min.

What about the “Thrombin Generation Assay Tmax, baseline” value (thrombin generation; [6]) of the same compound?
Its value is 7.3 (0.8) min.

And the “Thrombin Generation Assay lag time, baseline” value (thrombin generation; [6])?
Its value is 3.5 (0.5) min.

And the “anticoagulant effect of simvastatin without dabigatran, thrombin generation” value (thrombin generation; [7])?
The value was “no significant difference”.

And the elimination half-life [2]?
The elimination half-life was “about 2.8 h”.

And the “effect on CES1-mediated hydrolysis of clopidogrel” value (CES1)?
Its value is “can inhibit”.

Which “Time to reach Cmax (Tmax)” value ([2]; human, in vivo) does the source give for `CCC(C)(C)C(=O)O[C@H]1C[C@@H](C)C=C2C=C[C@H](C)[C@H](CC[C@@H](O)C[C@@H](O)CC(=O)O)[C@H]21` [simvastatin acid] here?
The value was roughly 4.2 h.

And the elimination half-life ([2]; human, in vivo)?
Its elimination half-life is roughly 4.4 h.
